Molecular target: T1, recombinant human NAE enzyme (Homo sapiens, UniProt Q8TBC4)
T1 construct: His (N); made in house; host or cells: Sf9 insect cells (baculovirus, Bac-to-Bac)
T1 sequence (Q8TBC4 1-463): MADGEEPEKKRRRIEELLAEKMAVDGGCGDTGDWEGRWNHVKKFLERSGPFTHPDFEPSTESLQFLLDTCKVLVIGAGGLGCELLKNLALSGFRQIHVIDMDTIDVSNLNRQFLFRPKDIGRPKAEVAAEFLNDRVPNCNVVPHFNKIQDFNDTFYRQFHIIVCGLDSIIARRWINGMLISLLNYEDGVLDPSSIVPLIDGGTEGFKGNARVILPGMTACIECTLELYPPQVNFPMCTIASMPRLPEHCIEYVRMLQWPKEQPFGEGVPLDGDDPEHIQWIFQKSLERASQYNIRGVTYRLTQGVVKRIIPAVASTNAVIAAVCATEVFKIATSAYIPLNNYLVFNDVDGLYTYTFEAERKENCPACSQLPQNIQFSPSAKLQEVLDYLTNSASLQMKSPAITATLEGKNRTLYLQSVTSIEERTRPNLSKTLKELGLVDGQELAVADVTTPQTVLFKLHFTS
T1 sequence (Q13564 1-534 partner): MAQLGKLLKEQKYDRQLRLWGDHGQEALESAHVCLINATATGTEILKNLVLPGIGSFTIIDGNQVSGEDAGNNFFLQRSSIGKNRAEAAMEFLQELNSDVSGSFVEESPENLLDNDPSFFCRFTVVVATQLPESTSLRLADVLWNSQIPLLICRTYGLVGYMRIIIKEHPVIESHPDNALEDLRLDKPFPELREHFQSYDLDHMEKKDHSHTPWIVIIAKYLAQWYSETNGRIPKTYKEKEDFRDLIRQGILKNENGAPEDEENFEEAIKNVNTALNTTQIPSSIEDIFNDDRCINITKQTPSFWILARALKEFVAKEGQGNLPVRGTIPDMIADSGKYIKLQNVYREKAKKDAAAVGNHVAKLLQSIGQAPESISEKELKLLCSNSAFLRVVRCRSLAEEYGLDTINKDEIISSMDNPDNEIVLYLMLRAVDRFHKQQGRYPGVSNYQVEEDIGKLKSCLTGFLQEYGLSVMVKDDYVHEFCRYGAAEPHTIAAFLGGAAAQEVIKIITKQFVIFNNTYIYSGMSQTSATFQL
Test: Nedd8-Activating Enzyme (NAE) HTRF Assay
Type: biochemical
Details: 20 μM ATP
In short: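 Recombinant human NAE (NAEα/His-NAEβ from Sf9 cells) at 0.20 nM with 20 μM ATP, 0.01 μM Ubc12-GST and 0.075 μM Nedd8-Flag in HEPES pH 7.5, 105 min at 24° C. EDTA stop; Eu-anti-FLAG/APC-anti-GST HTRF read after 1 h.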

Row | SMILES | IC50 (bound given in μM) [µM] | IC50 (bound given in nM) [µM]
1 | NS(=O)(=O)OC[C@@H]1C[C@@H](O)[C@H](Nc2cc(N[C@H]3CCc4ccccc43)ncn2)C1 [Compound I-76, [(1S,3R,4R)-3-({6-[(1S)-2,3-dihydro-1H-inden-1-ylamino]pyrimidin-4-yl}amino)-4-hydroxycyclopentyl]methyl sulfamate] | > 10 | 
2 | NS(=O)(=O)OC[C@@H]1C[C@@H](Oc2ncnc3c2ncn3Cc2ccccc2)C[C@@H]1O [Compound I-80, {(1S,2S,4R)-4-[(9-benzyl-9H-purin-6-yl)oxy]-2-hydroxycyclopentyl}methyl sulfamate] | < 10 | > 0.5
3 | NS(=O)(=O)OC[C@@H]1C[C@@H](Nc2cc(CCc3ccccc3)ncn2)C[C@@H]1O [Compound I-81, ((1S,2S,4R)-2-hydroxy-4-{[6-(2-phenylethyl)pyrimidin-4-yl]amino}cyclopentyl)methyl sulfamate] | < 10 | > 0.5
4 | NS(=O)(=O)OC[C@H]1C[C@@H](Nc2cc(CCc3ccccc3)ncn2)[C@H](O)[C@@H]1O [Compound I-86, ((1R,2R,3S,4R)-2,3-dihydroxy-4-{[6-(2-phenylethyl)pyrimidin-4-yl]amino}cyclopentyl)-methyl sulfamate] | < 10 | > 0.5
5 | NS(=O)(=O)OC[C@@H]1C[C@@H](Oc2cc(OCc3ccc(Cl)cc3)ncn2)C[C@@H]1O [Compound I-89, [(1S,2S,4R)-4-({6-[(4-chlorobenzyl)oxy]pyrimidin-4-yl}oxy)-2-hydroxycyclopentyl]methyl sulfamate] | > 10 | 
6 | NS(=O)(=O)OC[C@H]1C[C@@H](Nc2cc(N[C@H]3CCC[C@@H]3OCc3ccccc3)ncn2)[C@H](O)[C@@H]1O [Compound I-92, {(1R,2R,3S,4R)-4-[(6-{[(1S,2S)-2-(benzyloxy)cyclopentyl]amino}pyrimidin-4-yl)amino]-2,3-dihydroxycyclopentyl}methyl sulfamate] | < 10 | > 0.5
7 | NS(=O)(=O)OC[C@@H]1C[C@@H](Oc2ccnc(N[C@H]3CCc4ccccc43)c2)C[C@@H]1O [Compound I-94, [(1S,2S,4R)-4-({2-[(1S)-2,3-dihydro-1H-inden-1-ylamino]pyridin-4-yl}oxy)-2-hydroxycyclopentyl]methyl sulfamate] | < 10 | > 0.5
8 | CO[C@H]1Cc2ccccc2[C@H]1Oc1cc(O[C@@H]2C[C@@H](COS(N)(=O)=O)[C@@H](O)C2)ncn1 [Compound I-96, {(1S,2S,4R)-2-hydroxy-4-[(6-{[(1R,2S)-2-methoxy-2,3-dihydro-1H-inden-1-yl]oxy}-pyrimidin-4-yl)oxy]cyclopentyl}methyl sulfamate] | < 10 | > 0.5
9 | NS(=O)(=O)OC[C@@H]1C[C@@H](Oc2ccncn2)C[C@@H]1O [Compound I-97, [(1S,2S,4R)-2-hydroxy-4-(pyrimidin-4-yloxy)cyclopentyl]methyl sulfamate] | > 10 | 
10 | CO[C@@H]1Cc2ccccc2[C@@H]1Oc1cc(O[C@@H]2C[C@@H](COS(N)(=O)=O)[C@@H](O)C2)ncn1 [Compound I-98, {(1S,2S,4R)-2-hydroxy-4-[(6-{[(1S,2R)-2-methoxy-2,3-dihydro-1H-inden-1-yl]oxy}-pyrimidin-4-yl)oxy]cyclopentyl}methyl sulfamate] | < 10 | > 0.5
11 | OC[C@@H]1C[C@@H](Nc2ncnc3[nH]c(-c4cccc5c4CCCC5)nc23)C[C@@H]1O [Compound I-110, (1S,2S,4R)-2-(hydroxymethyl)-4-{[8-(5,6,7,8-tetrahydronaphthalen-1-yl)-9H-purin-6-yl]-amino}cyclopentanol] | < 10 | > 0.5

Continued, values first:

Row | IC50 (bound given in μM) [µM] | IC50 (bound given in nM) [µM] | SMILES
12 | < 10 | > 0.5 | CO[C@H]1c2ccccc2C[C@H]1Oc1cc(O[C@@H]2C[C@@H](COS(N)(=O)=O)[C@@H](O)C2)ncn1 [Compound I-77, {(1S,2S,4R)-2-hydroxy-4-[(6-{[(1S,2R)-1-methoxy-2,3-dihydro-1H-inden-2-yl]oxy}-pyrimidin-4-yl)oxy]cyclopentyl}methyl sulfamate]
13 | < 10 | > 0.5 | CO[C@@H]1c2ccccc2C[C@@H]1Oc1cc(O[C@@H]2C[C@@H](COS(N)(=O)=O)[C@@H](O)C2)ncn1 [Compound I-79, {(1S,2S,4R)-2-hydroxy-4-[(6-{[(1R,2S)-1-methoxy-2,3-dihydro-1H-inden-2-yl]oxy}-pyrimidin-4-yl)oxy]cyclopentyl}methyl sulfamate]
14 |  | ≤ 0.5 | CO[C@H]1Cc2ccccc2[C@H]1Nc1cc(O[C@@H]2C[C@@H](CNS(N)(=O)=O)[C@@H](O)C2)ncn1 [Compound I-82, N-({(1S,2S,4R)-2-hydroxy-4-[(6-{[(1R,2S)-2-methoxy-2,3-dihydro-1H-inden-1-yl]amino}pyrimidin-4-yl)oxy]cyclopentyl}methyl)sulfamide]
15 |  | ≤ 0.5 | CO[C@H]1Cc2ccccc2[C@H]1Nc1ncnc(O[C@@H]2C[C@@H](COS(N)(=O)=O)[C@@H](O)C2)c1F [Compound I-83, {(1S,2S,4R)-4-[(5-fluoro-6-{[(1R,2S)-2-methoxy-2,3-dihydro-1H-inden-1-yl]amino}pyrimidin-4-yl)oxy]-2-hydroxycyclopentyl}methyl sulfamate]
16 |  | ≤ 0.5 | NS(=O)(=O)OC[C@@H]1C[C@@H](Nc2ncnc3nc(-c4cccc5cccnc45)[nH]c23)C[C@@H]1O [Compound I-84, {(1S,2S,4R)-2-hydroxy-4-[(8-quinolin-8-yl-7H-purin-6-yl)amino]cyclopentyl}methyl sulfamate]
17 |  | ≤ 0.5 | NS(=O)(=O)OC[C@@H]1C[C@@H](Oc2ncnc3[nH]c(-c4cccc5ccccc45)nc23)C[C@@H]1O [Compound I-87, ((1S,2S,4R)-2-hydroxy-4-{[8-(1-naphthyl)-9H-purin-6-yl]oxy}cyclopentyl)methyl sulfamate]
18 |  | ≤ 0.5 | NS(=O)(=O)OC[C@@H]1C[C@@H](Nc2ncnc3[nH]c(Cc4ccccc4)nc23)C[C@@H]1O [Compound I-88, {(1S,2S,4R)-4-[(8-benzyl-9H-purin-6-yl)amino]-2-hydroxycyclopentyl}methyl sulfamate]
19 |  | ≤ 0.5 | NS(=O)(=O)OC[C@@H]1C[C@@H](Nc2ncnc3oc(-c4ccccc4)nc23)C[C@@H]1O [Compound I-90, {(1S,2S,4R)-2-hydroxy-4-[(2-phenyl[1,3]oxazolo[5,4-d]pyrimidin-7-yl)amino]cyclopentyl}methyl sulfamate]
20 |  | ≤ 0.5 | COc1cccc(OC)c1-c1nc2c(N[C@@H]3C[C@@H](COS(N)(=O)=O)[C@@H](O)C3)ncnc2[nH]1 [Compound I-93, ((1S,2S,4R)-4-{[8-(2,6-dimethoxyphenyl)-9H-purin-6-yl]amino}-2-hydroxycyclopentyl)methyl sulfamate]
21 |  | ≤ 0.5 | COc1cccc(-c2nc3c(N[C@@H]4C[C@@H](COS(N)(=O)=O)[C@@H](O)C4)ncnc3[nH]2)c1 [Compound I-99, ((1S,2S,4R)-2-hydroxy-4-{[8-(3-methoxyphenyl)-9H-purin-6-yl]amino}cyclopentyl)methyl sulfamate]
22 |  | ≤ 0.5 | CC1(C)Cc2cccc(-c3nc4c(N[C@@H]5C[C@@H](COS(N)(=O)=O)[C@@H](O)C5)ncnc4[nH]3)c2O1 [Compound I-100, ((1S,2S,4R)-4-{[8-(2,2-dimethyl-2,3-dihydro-1-benzofuran-7-yl)-9H-purin-6-yl]amino}-2-hydroxycyclopentyl)methyl sulfamate]
23 |  | ≤ 0.5 | Cc1cccc(S(=O)(=O)c2nc3c(O[C@@H]4C[C@@H](COS(N)(=O)=O)[C@@H](O)C4)ncnc3[nH]2)c1 [Compound I-101, [(1S,2S,4R)-2-hydroxy-4-({8-[(3-methylphenyl)sulfonyl]-9H-purin-6-yl}oxy)cyclopentyl]methyl sulfamate]
24 |  | ≤ 0.5 | NS(=O)(=O)OC[C@@H]1C[C@@H](Nc2ncnc3nc(-c4ccc(OCc5ccccc5)cc4)[nH]c23)C[C@@H]1O [Compound I-102, [(1S,2S,4R)-4-({8-[4-(benzyloxy)phenyl]-7H-purin-6-yl}amino)-2-hydroxycyclopentyl]methyl sulfamate]
25 |  | ≤ 0.5 | CN(C)c1ccc(-c2nc3ncnc(O[C@@H]4C[C@@H](COS(N)(=O)=O)[C@@H](O)C4)c3[nH]2)c2ccccc12 [Compound I-103, [(1S,2S,4R)-4-({8-[4-(dimethylamino)-1-naphthyl]-7H-purin-6-yl}oxy)-2-hydroxycyclopentyl]methyl sulfamate]
26 |  | ≤ 0.5 | NS(=O)(=O)OC[C@@H]1C[C@@H](Nc2ncnc3[nH]c(-c4ccc(Cl)cc4)nc23)C[C@@H]1O [Compound I-111, ((1S,2S,4R)-4-{[8-(4-chlorophenyl)-9H-purin-6-yl]amino}-2-hydroxycyclopentyl)methyl sulfamate]
